{"source": "patent US20140094424A1", "about": "“MICROBICIDAL COMPOSITIONS AND METHODS OF PRODUCTION USE THEREOF” (priority 2011, published 2014)", "key": {"Gram positive rods (S)": {"test_system": "Gram positive rods (S)", "test": "MBC (minimum bactericidal concentration) test in Wash NEXT reagent", "assay_type": "cell-based"}, "[1]": {"test_system": "Pseudomonas aeruginosa (AY)", "test": "MBC (minimum bactericidal concentration) test in Wash NEXT reagent", "assay_type": "cell-based"}}, "data": [{"substance": "gentamicin", "values": [{"measurement": "MBC test growth score", "setting": "Gram positive rods (S); 10% preservative, 8 hour", "result": "−"}, {"measurement": "MBC test growth score", "setting": "Gram positive rods (S); 10% preservative, 24 hour", "result": "−"}, {"measurement": "MBC test growth score", "setting": "Gram positive rods (S); 10% preservative, 48 hour", "result": "−"}, {"measurement": "MBC test growth score", "setting": "Gram positive rods (S); 10% preservative, 72 hour", "result": "−"}, {"measurement": "MBC test growth score", "setting": "Gram positive rods (S); 20% preservative, 8 hour", "result": "−"}, {"measurement": "MBC test growth score", "setting": "Gram positive rods (S); 20% preservative, 24 hour", "result": "−"}, {"measurement": "MBC test growth score", "setting": "Gram positive rods (S); 20% preservative, 48 hour", "result": "−"}, {"measurement": "MBC test growth score", "setting": "Gram positive rods (S); 20% preservative, 72 hour", "result": "−"}, {"measurement": "MBC test growth score", "setting": "Gram positive rods (S); 30% preservative, 8 hour", "result": "−"}, {"measurement": "MBC test growth score", "setting": "Gram positive rods (S); 30% preservative, 24 hour", "result": "−"}, {"measurement": "MBC test growth score", "setting": "Gram positive rods (S); 30% preservative, 48 hour", "result": "−"}, {"measurement": "MBC test growth score", "setting": "Gram positive rods (S); 30% preservative, 72 hour", "result": "−"}, {"measurement": "MBC test growth score", "setting": "Gram positive rods (S); 40% preservative, 8 hour", "result": "−"}, {"measurement": "MBC test growth score", "setting": "Gram positive rods (S); 40% preservative, 24 hour", "result": "−"}, {"measurement": "MBC test growth score", "setting": "Gram positive rods (S); 40% preservative, 48 hour", "result": "−"}, {"measurement": "MBC test growth score", "setting": "Gram positive rods (S); 40% preservative, 72 hour", "result": "−"}, {"measurement": "MBC test growth score", "setting": "Gram positive rods (S); 50% preservative, 8 hour", "result": "−"}, {"measurement": "MBC test growth score", "setting": "Gram positive rods (S); 50% preservative, 24 hour", "result": "−"}, {"measurement": "MBC test growth score", "setting": "Gram positive rods (S); 50% preservative, 48 hour", "result": "−"}, {"measurement": "MBC test growth score", "setting": "Gram positive rods (S); 50% preservative, 72 hour", "result": "−"}, {"measurement": "MBC test growth score", "setting": "Gram positive rods (S); 60% preservative, 8 hour", "result": "−"}, {"measurement": "MBC test growth score", "setting": "Gram positive rods (S); 60% preservative, 24 hour", "result": "−"}, {"measurement": "MBC test growth score", "setting": "Gram positive rods (S); 60% preservative, 48 hour", "result": "−"}, {"measurement": "MBC test growth score", "setting": "Gram positive rods (S); 60% preservative, 72 hour", "result": "−"}, {"measurement": "MBC test growth score", "setting": "Gram positive rods (S); 70% preservative, 8 hour", "result": "−"}, {"measurement": "MBC test growth score", "setting": "Gram positive rods (S); 70% preservative, 24 hour", "result": "−"}, {"measurement": "MBC test growth score", "setting": "Gram positive rods (S); 70% preservative, 48 hour", "result": "−"}, {"measurement": "MBC test growth score", "setting": "Gram positive rods (S); 70% preservative, 72 hour", "result": "−"}, {"measurement": "MBC test growth score", "setting": "Gram positive rods (S); 80% preservative, 8 hour", "result": "−"}, {"measurement": "MBC test growth score", "setting": "Gram positive rods (S); 80% preservative, 24 hour", "result": "−"}, {"measurement": "MBC test growth score", "setting": "Gram positive rods (S); 80% preservative, 48 hour", "result": "−"}, {"measurement": "MBC test growth score", "setting": "Gram positive rods (S); 80% preservative, 72 hour", "result": "−"}, {"measurement": "MBC test growth score", "setting": "Gram positive rods (S); 90% preservative, 8 hour", "result": "−"}, {"measurement": "MBC test growth score", "setting": "Gram positive rods (S); 90% preservative, 24 hour", "result": "−"}, {"measurement": "MBC test growth score", "setting": "Gram positive rods (S); 90% preservative, 48 hour", "result": "−"}, {"measurement": "MBC test growth score", "setting": "Gram positive rods (S); 90% preservative, 72 hour", "result": "−"}, {"measurement": "MBC test growth score", "setting": "Gram positive rods (S); 100% preservative, 8 hour", "result": "−"}, {"measurement": "MBC test growth score", "setting": "Gram positive rods (S); 100% preservative, 24 hour", "result": "−"}, {"measurement": "MBC test growth score", "setting": "Gram positive rods (S); 100% preservative, 48 hour", "result": "−"}, {"measurement": "MBC test growth score", "setting": "Gram positive rods (S); 100% preservative, 72 hour", "result": "−"}, {"measurement": "MBC test growth score", "setting": "[1]; 10% preservative, 8 hour", "result": "+/−"}, {"measurement": "MBC test growth score", "setting": "[1]; 10% preservative, 24 hour", "result": "−"}, {"measurement": "MBC test growth score", "setting": "[1]; 10% preservative, 48 hour", "result": "−"}, {"measurement": "MBC test growth score", "setting": "[1]; 10% preservative, 72 hour", "result": "−"}, {"measurement": "MBC test growth score", "setting": "[1]; 20% preservative, 8 hour", "result": "+/−"}, {"measurement": "MBC test growth score", "setting": "[1]; 20% preservative, 24 hour", "result": "−"}, {"measurement": "MBC test growth score", "setting": "[1]; 20% preservative, 48 hour", "result": "−"}, {"measurement": "MBC test growth score", "setting": "[1]; 20% preservative, 72 hour", "result": "−"}, {"measurement": "MBC test growth score", "setting": "[1]; 30% preservative, 8 hour", "result": "−"}, {"measurement": "MBC test growth score", "setting": "[1]; 30% preservative, 24 hour", "result": "−"}, {"measurement": "MBC test growth score", "setting": "[1]; 30% preservative, 48 hour", "result": "−"}, {"measurement": "MBC test growth score", "setting": "[1]; 30% preservative, 72 hour", "result": "−"}, {"measurement": "MBC test growth score", "setting": "[1]; 40% preservative, 8 hour", "result": "−"}, {"measurement": "MBC test growth score", "setting": "[1]; 40% preservative, 24 hour", "result": "−"}, {"measurement": "MBC test growth score", "setting": "[1]; 40% preservative, 48 hour", "result": "−"}, {"measurement": "MBC test growth score", "setting": "[1]; 40% preservative, 72 hour", "result": "−"}, {"measurement": "MBC test growth score", "setting": "[1]; 50% preservative, 8 hour", "result": "−"}, {"measurement": "MBC test growth score", "setting": "[1]; 50% preservative, 24 hour", "result": "−"}, {"measurement": "MBC test growth score", "setting": "[1]; 50% preservative, 48 hour", "result": "−"}, {"measurement": "MBC test growth score", "setting": "[1]; 50% preservative, 72 hour", "result": "−"}, {"measurement": "MBC test growth score", "setting": "[1]; 60% preservative, 8 hour", "result": "−"}, {"measurement": "MBC test growth score", "setting": "[1]; 60% preservative, 24 hour", "result": "−"}, {"measurement": "MBC test growth score", "setting": "[1]; 60% preservative, 48 hour", "result": "−"}, {"measurement": "MBC test growth score", "setting": "[1]; 60% preservative, 72 hour", "result": "−"}, {"measurement": "MBC test growth score", "setting": "[1]; 70% preservative, 8 hour", "result": "−"}, {"measurement": "MBC test growth score", "setting": "[1]; 70% preservative, 24 hour", "result": "−"}, {"measurement": "MBC test growth score", "setting": "[1]; 70% preservative, 48 hour", "result": "−"}, {"measurement": "MBC test growth score", "setting": "[1]; 70% preservative, 72 hour", "result": "−"}, {"measurement": "MBC test growth score", "setting": "[1]; 80% preservative, 8 hour", "result": "−"}, {"measurement": "MBC test growth score", "setting": "[1]; 80% preservative, 24 hour", "result": "−"}, {"measurement": "MBC test growth score", "setting": "[1]; 80% preservative, 48 hour", "result": "−"}, {"measurement": "MBC test growth score", "setting": "[1]; 80% preservative, 72 hour", "result": "−"}, {"measurement": "MBC test growth score", "setting": "[1]; 90% preservative, 8 hour", "result": "−"}, {"measurement": "MBC test growth score", "setting": "[1]; 90% preservative, 24 hour", "result": "−"}, {"measurement": "MBC test growth score", "setting": "[1]; 90% preservative, 48 hour", "result": "−"}, {"measurement": "MBC test growth score", "setting": "[1]; 90% preservative, 72 hour", "result": "−"}, {"measurement": "MBC test growth score", "setting": "[1]; 100% preservative, 8 hour", "result": "−"}, {"measurement": "MBC test growth score", "setting": "[1]; 100% preservative, 24 hour", "result": "−"}, {"measurement": "MBC test growth score", "setting": "[1]; 100% preservative, 48 hour", "result": "−"}, {"measurement": "MBC test growth score", "setting": "[1]; 100% preservative, 72 hour", "result": "−"}]}]}
